Source: ChEMBL document CHEMBL1201862, “PubChem BioAssay data set” (2004)
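Step 1: Grow cells in 96-well plates. Step 2: Expose to compound for 48 hours at 5 concentrations. Step 3: Interpolate endpoints linearly; if unreached, use highest concentration. Abbreviation: GI50, concentration required for 50% inhibition of growth.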 Calls of active or inactive are those of the source. Rule as the data show it: active = GI50 up to about 1.1 µM and inactive = higher. Where a SMILES comes first, the peptide text is derived from it. The star is where a group is joined. Fmoc = O=C(OCC1c2ccccc2-c2ccccc21)*; Boc = CC(C)(C)OC(=O)*

Columns and labels:
Test in all cases: DTP human tumour cell line panel, 48 h
DU-145 = system: DU-145
HOP-92 = system: HOP-92
HOP-62 = system: HOP-62
SK-OV-3 = system: SK-OV-3
ACHN = system: ACHN
Hs-578T = system: Hs-578T
U-251 = system: U-251
SNB-75 = system: SNB-75
MDA-MB-231 = system: MDA-MB-231
UACC-62 = system: UACC-62
HT-29 = system: HT-29
M14 = system: M14
OVCAR-8 = system: OVCAR-8
HCT-116 = system: HCT-116
NCI-H460 = system: NCI-H460
SF-539 = system: SF-539
CCRF-CEM = system: CCRF-CEM
SF-295 = system: SF-295
OVCAR-3 = system: OVCAR-3
NCI-H522 = system: NCI-H522

Measured: GI50

COC(=O)CCN(CCC(=O)OC)C1CC1
inactive: DU-145 > 100 µM | HOP-92 28.3 µM | HOP-62 > 100 µM | SK-OV-3 > 100 µM | ACHN > 100 µM | Hs-578T > 100 µM | U-251 > 100 µM | SNB-75 > 100 µM | MDA-MB-231 > 100 µM | UACC-62 > 100 µM | HT-29 > 100 µM | M14 > 100 µM | OVCAR-8 > 100 µM | HCT-116 > 100 µM | NCI-H460 > 100 µM | SF-539 > 100 µM | CCRF-CEM > 100 µM | SF-295 > 100 µM

CC1C[C@]2(C)C(=O)Nc3ccccc3[C@@H]2Nc2ccccc21 (some centres not stated)
inactive: DU-145 27.7 µM | HOP-92 1.95 µM | HOP-62 23.7 µM | ACHN 27.1 µM | OVCAR-3 17.8 µM | Hs-578T 20 µM | SNB-75 46.3 µM | MDA-MB-231 16.3 µM | UACC-62 15.1 µM | HT-29 14.7 µM | M14 26.1 µM | OVCAR-8 14.8 µM | HCT-116 16.1 µM | NCI-H460 28.1 µM | SF-539 23.4 µM | CCRF-CEM 30.5 µM | SF-295 31.6 µM

NNC(=O)c1cccc2c1Oc1ccccc1S2
inactive: DU-145 69 µM | HOP-92 > 100 µM | HOP-62 95.9 µM | SK-OV-3 65.2 µM | ACHN > 100 µM | Hs-578T 31.6 µM | U-251 > 100 µM | SNB-75 50.6 µM | MDA-MB-231 > 100 µM | UACC-62 > 100 µM | HT-29 > 100 µM | M14 > 100 µM | OVCAR-8 98.6 µM | HCT-116 > 100 µM | NCI-H460 > 100 µM | SF-539 > 100 µM | CCRF-CEM 63.1 µM | SF-295 77.3 µM

CC[N+]1(C)CCC(O)(c2ccc(Cl)c(Cl)c2)C(C(=O)c2ccc(Cl)c(Cl)c2)C1 (configuration not stated)
inactive: NCI-H522 3.08 µM | DU-145 > 10 µM | HOP-92 > 10 µM | HOP-62 > 10 µM | SK-OV-3 > 10 µM | ACHN > 10 µM | OVCAR-3 > 10 µM | Hs-578T > 10 µM | U-251 > 10 µM | SNB-75 > 10 µM | HT-29 > 10 µM | M14 > 10 µM | OVCAR-8 > 10 µM | HCT-116 > 10 µM | NCI-H460 > 10 µM | SF-539 > 10 µM | CCRF-CEM 2.61 µM | SF-295 > 10 µM

c1ccc(-c2nc(-c3ccccc3SSc3ccccc3-c3nc(-c4ccccc4)nn3-c3ccccc3)n(-c3ccccc3)n2)cc1
inactive: DU-145 > 100 µM | HOP-92 > 100 µM | HOP-62 > 10 µM | SK-OV-3 > 100 µM | ACHN > 100 µM | OVCAR-3 > 100 µM | Hs-578T > 100 µM | U-251 > 100 µM | SNB-75 > 100 µM | MDA-MB-231 > 100 µM | UACC-62 > 100 µM | M14 > 100 µM | OVCAR-8 > 100 µM | HCT-116 > 100 µM | NCI-H460 > 100 µM | SF-539 > 100 µM | CCRF-CEM > 100 µM | SF-295 > 100 µM

COC(=O)[C@H](C)N(C)C(=O)[C@H](C)N1[C@@H](c2ccccc2)COC1(C)C
inactive: NCI-H522 > 100 µM | HOP-92 > 100 µM | HOP-62 > 100 µM | SK-OV-3 > 100 µM | ACHN > 100 µM | OVCAR-3 > 100 µM | Hs-578T > 100 µM | U-251 > 100 µM | SNB-75 92.7 µM | MDA-MB-231 > 100 µM | UACC-62 > 100 µM | HT-29 > 100 µM | M14 > 100 µM | OVCAR-8 > 100 µM | HCT-116 > 100 µM | NCI-H460 > 100 µM | SF-539 > 100 µM | CCRF-CEM > 100 µM | SF-295 > 100 µM

CC(C)(C)OC(=O)NCCCCC(NC(=O)OCC1c2ccccc2-c2ccccc21)C(=O)N1CCCC1C(=O)NCC(N)=O (stereo not drawn) (Fmoc-Lys(Boc)-Pro-Gly-NH2; configuration not given here)
inactive: DU-145 > 100 µM | HOP-92 20.4 µM | HOP-62 89.1 µM | SK-OV-3 2.17 µM | ACHN 17.9 µM | OVCAR-3 45.1 µM | Hs-578T > 100 µM | U-251 18.5 µM | SNB-75 7.6 µM | MDA-MB-231 46.7 µM | UACC-62 46 µM | HT-29 31.3 µM | M14 35.1 µM | OVCAR-8 66.5 µM | HCT-116 36.6 µM | NCI-H460 20.3 µM | SF-539 88.1 µM | CCRF-CEM 76.6 µM | SF-295 78.3 µM
